Results as given in US11098006B2, “Lipids and complexes for the delivery of biologically-active material to cells” (RYBOQUIN COMPANY LTD, priority 2016, dated 2021).
One block for each compound: values may come before it.

How the values were obtained:
COS.7 cells = conditions: cited from earlier work
many cell types = conditions: cited from earlier work
[1] = cited from earlier work
[2] = test system: NIH3T3 murine fibroblasts; experiment: In vitro transfection with LPD formulations, luciferase reporter assay; type: cell-based; conditions: NIH3T3 cells; LPD with peptide ME27 and plasmid pCI-Luc; FIG. 1
Method: (§1) Cells tested included 1HAEo-human airway epithelial cells, NIH3T3 murine fibroblasts, and Neuro2A murine neuroblastoma cells. Cells were seeded into 96-well plates at approximately 2×10^4 cells per well, then incubated overnight at 37° C. in complete growth medium. The following day, lipopolyplex (LPD) formulations were prepared essentially as described previously (Hart et al., 1998), by mixing the components in the following order: 50 μl of lipid (L) at 80 μg/ml in OptiMEM, 70 μl of peptide (P) at 110 μg/ml in OptiMEM and 50 μl of plasmid pCI-Luc (D) at 40 μg/ml in OptiMEM corresponding to a weight ratio of 2:4:1, respectively. […] The cells were incubated with the complexes for 4 h at 37° C. before replacing with fresh media for 24 h, after which reporter gene expression was analyzed by luciferase assay (Promega, Madison, Wis., USA). […]
(§2) Cells were washed once with PBS before the addition of 20 μl of 1× Reporter Lysis Buffer (Promega, Madison, Wis., USA) to the cells for 20 min at 4° C. before freezing at −80° C. for at least 30 min, followed by thawing at room temperature. Then the luciferase activity was measured during 10 seconds using the Luciferase Assay System (Promega, Madison, Wis., USA) and an Optima Fluostar plate reader (BMG Labtech). […] In vitro luciferase activity was expressed as Relative Light Units (RLU) per milligram of protein (RLU/mg).

[3] = test system: 1HAEo- human airway epithelial cells; experiment: as above; type: cell-based; conditions: 1HAEo- cells; LPD with peptide ME27 and plasmid pCI-Luc; FIG. 2
Method: as §1, §2

[4] = Size of LPD nanoparticles by dynamic light scattering; type: physicochemical; conditions: peptide ME27; weight ratio 0.75:4:1 (L:P:D); FIG. 7
Method: The size of LPD nanoparticles containing peptides ME27 with lipids FMM30 or FMM30/DPE were determined at different weight ratios of liposome to DNA (w/w) by dynamic light scattering using a NanoZS Zetasizer (Malvern).

[5] = Transmission electron microscope imaging of LPD particles; type: physicochemical; conditions: peptide ME27; weight ratio 0.75:4:1 (L:P:D); FIG. 5 and FIG. 6
Source text: Transmission Electon Microscope images of LPD particles comprising FMM30 with peptide ME27 at a weight ratio of 0.75:4:1 (L:P:D) is shown in FIG. 5 (FMM30-PD-0.75) and lipids FMM30/DOPE at the same weight ratio is shown in FIG. 6 (FMM30/DOPE-PD 0.75).

SMILES: CCCCCCCC/C=C\CCCCCCCCOCC(C[N+](C)(C)CCO)OCCCCCCCC/C=C\CCCCCCCC.[Br-] (stereo not drawn) [DORIE 6]
transfection efficacies in COS.7 cells (COS.7 cells; co-formulation with helper lipid DOPE 2, compared to lipids with hydroxypropyl-hydroxypentyl groups): higher transfection efficacies

SMILES: CCCCCCCC/C=C\CCCCCCCCOCC(C[N+](C)(C)C)OCCCCCCCC/C=C\CCCCCCCC.[Cl-] (stereo not drawn) [DOTMA 1]
levels of transfection in vitro (many cell types): comparable levels of transfection | transfection activities in vivo [1]: exhibited higher transfection activities

SMILES: CCCCCCCC/C=C\CCCCCCCC(=O)OCC(C[N+](C)(C)C)OC(=O)CCCCCCC/C=C\CCCCCCCC (stereo not drawn) [DOTAP 4]
levels of transfection in vitro (many cell types): comparable levels of transfection

SMILES: CCCCCCCCCCCCCCOCC(C[N+](C)(C)CCO)OCCCCCCCCCCCCCC.[Br-] (stereo not drawn) [DMRIE 7]
transfection activity of hydroxyalkyl cytofectins (COS.7 cells; compared with DOTMA 1): one of the more efficient lipids

transfection levels [2]: far higher than the bi-chain lipid CH300 | size of LPD nanoparticles [4]: approximately 80 nm
SMILES: CCCCCCCC/C=C\CCCCCCCCOCC(C[N+](C)(C)CCOCCOCCOCCOC(=O)CCCCCCC/C=C\CCCCCCCC)OCCCCCCCC/C=C\CCCCCCCC (stereo not drawn) [FMM30, (9Z)—N-(2,3-bis((9Z)-octadecenyloxy)propyl)-N,N-dimethyl-13-oxo-3,6,9,12-tetraoxatriacont-21-en-1-aminium bromide]
transfection levels [3]: far higher than the bi-chain lipid CH300 | particle size and shape in TEM images [5]: quite similar sizes with a combination of shapes including rods and spheres
